This note sets out measurements from patent US12655142B2 (Merck Patent GmbH, priority 2019, dated 2026).

What is called efflux ratio is the permeability from basolateral to apical divided by that in the opposite direction, in the common usage.

Some results are limits rather than exact numbers.

The nature of data set [1]: Determination of Efflux-Ratio (ER) in Caco-2 cells. To be noted: human, Caco-2, pH 7.4.
Description: Determination of Efflux-Ratio (ER) in Caco-2 Cells
The efflux ratio of the test compounds was determined in Caco-2 human epithelial colorectal adenocarcinoma cell line (TC7 clone) using calculation of apparent permeability (Papp). Cell monolayers were differentiated in vitro for 14 days before the experiment. Subsequently, the test compound (in HBSS pH 7.4 at 1 μM final concentration) was applied on the donor side while HBSS buffer (pH 7.4) was added to the receiver wells. […] The plate was then incubated in a 5% CO2 incubator (37° C., 100% humidity). At the end of the 2 hours incubation period, 50 μL sample was removed from both donor and receiver wells and diluted 1:1 with equal volumes of acetonitrile for LC-MS/MS analysis. The LC-MS/MS analysis used a one-point calibration method from a 1 μM standard solution diluted 1:1 with equal volume of acetonitrile (consistent to the test samples).
The data was used to calculate the apparent permeabilities of the compounds in both apical to basolateral (Papp,AB) and basolateral to apical (Papp,BA) directions at 1 μM concentration in duplicate. The Papp values were calculated from the concentrations in the donor and receiver compartments using the following formula:
Efflux ratio was calculated according to the following formula:
The target of data set [2] is T1, GIST430/654 cell line expressing mutated constitutively active cKIT receptor tyrosine kinase (Δ560-576 deletion and V654A point mutation) (Homo sapiens, UniProt P10721, DEL560-576/V654A).
T1 construct: endogenous in cells; host or cells: GIST430/654 cells
The experiment in a line: Cellular cKIT autophosphorylation (phospho-Y307-cKIT, Luminex bead assay) in GIST430/654 cells. Format: cell-based. To be noted: compounds 45 min, read-out: GIST 430/654 IC50. Put shortly: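 GIST430 (Δ560-576) and imatinib-resistant GIST430/654 (plus V654A; grown with 100 nM imatinib) cells were plated in IMDM/15% FCS and treated next day with serially diluted compound for 45 min. Lysates were captured on anti-total-cKIT Luminex beads overnight at 4 °C and probed for phospho-Y307. IC50 was taken from percent of 0.3% DMSO control.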

Data set [3] addresses T2, GIST430 cell line expressing constitutive active cKIT receptor tyrosine kinase (Δ560-576 deletion) (Homo sapiens, UniProt P10721, DEL560-576).
T2 construct: endogenous in cells; host or cells: GIST430 cells
Description: Cellular cKIT autophosphorylation (phospho-Y307-cKIT, Luminex bead assay) in GIST430 cells. Format: cell-based. To be noted: cKIT autophosphorylation, GIST430 cells, compounds 45 min; read-out: GIST 430 IC50. As for the experimental part: Assay Principle for Cellular Testing of cKIT Mutant Inhibitors
The GIST430 cell line expressing constitutive active cKIT receptor tyrosine kinase (Δ560-576 deletion) and the Imatinib resistant GIST430/654 cell line expressing mutated constitutively active cKIT receptor tyrosine kinase (Δ560-576 deletion and V654A point mutation) were employed for assessing cellular potency of compounds. Cellular activity of mutant cKIT was determined by the degree of cKIT autophosphorylation at tyrosine 307 using a Luminex-based bead assay. GIST430 cells were plated with 22,000 cells per well of a 96-well plate in 100 μl medium (85% IMDM/15% FCS) and GIST430/654 cells were plated with 25,000 cells per well of a 96-well plate in 100 μl medium (85% IMDM/15% FCS supplemented with 100 nM Imatinib). At the following day compounds were added in a serial dilution for 45 min. Then, cells were lysed with 90 μl lysis buffer (20 mM Hepes pH 7.5, 200 mM NaCl, 1.5 mM MgCl2×6H2O, 0.4 mM EDTA, 1% Triton-X-100, 1% Phosphatase-Inhibitor II, 20 mM β-Glycerolphosphat, 0.1% Protease-Inhibitor Cocktail III, 0.01% Benzonase) and lysates were cleared by centrifugation through a 96-well filter plate (0.65 μm). Samples were incubated with Luminex-beads which were coupled with an anti-total cKIT antibody overnight at 4° C. under gentle agitation. For detection of phospho-Y307-cKIT a phosphospecific antibody and a species-specific PE-labeled secondary antibody were added. The amount of phospho-Y307-cKIT was determined in a Luminex 200 instrument measuring 100 events per well within 60 seconds.
Counts from samples treated with compounds were calculated as percent of control from solvent treated (0.3% DMSO) samples. Dose-response curves were fitted and IC50 values were determined using Genedata Screener software.

The target of the next data set is T3, c-Kit(V654A) (Homo sapiens, UniProt P10721, V654A).
T3 construct: recombinant human c-Kit, amino acids 544-end containing the V654A mutation; GST (N)
Description: c-Kit(V654A) assay (33P-ATP filter binding kinase assay). Format: biochemical. To be noted: recombinant human c-Kit aa 544-end V654A, ATP 200 μM. In short, it runs like this: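 Radiometric filter-binding read-out: substrate 33P incorporation counted by scintillation after P30 filtermat washes in 75 mM phosphoric acid and methanol. Enzyme: N-GST recombinant human c-Kit aa 544-end carrying V654A.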

T3 sequence (P10721 544-976 V654A): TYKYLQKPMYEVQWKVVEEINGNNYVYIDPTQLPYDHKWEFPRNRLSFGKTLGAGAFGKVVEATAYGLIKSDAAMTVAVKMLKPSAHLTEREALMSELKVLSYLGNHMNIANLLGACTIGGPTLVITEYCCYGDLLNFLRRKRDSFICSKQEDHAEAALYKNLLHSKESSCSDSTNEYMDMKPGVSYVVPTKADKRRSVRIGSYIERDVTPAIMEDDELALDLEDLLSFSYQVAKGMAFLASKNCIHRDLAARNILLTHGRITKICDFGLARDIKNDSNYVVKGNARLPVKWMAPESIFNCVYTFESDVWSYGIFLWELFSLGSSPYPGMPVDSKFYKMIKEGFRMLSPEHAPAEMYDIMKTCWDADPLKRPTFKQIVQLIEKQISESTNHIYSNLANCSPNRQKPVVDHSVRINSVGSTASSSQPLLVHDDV
T2 sequence (P10721 with tags, fused parts or gaps DEL560-576): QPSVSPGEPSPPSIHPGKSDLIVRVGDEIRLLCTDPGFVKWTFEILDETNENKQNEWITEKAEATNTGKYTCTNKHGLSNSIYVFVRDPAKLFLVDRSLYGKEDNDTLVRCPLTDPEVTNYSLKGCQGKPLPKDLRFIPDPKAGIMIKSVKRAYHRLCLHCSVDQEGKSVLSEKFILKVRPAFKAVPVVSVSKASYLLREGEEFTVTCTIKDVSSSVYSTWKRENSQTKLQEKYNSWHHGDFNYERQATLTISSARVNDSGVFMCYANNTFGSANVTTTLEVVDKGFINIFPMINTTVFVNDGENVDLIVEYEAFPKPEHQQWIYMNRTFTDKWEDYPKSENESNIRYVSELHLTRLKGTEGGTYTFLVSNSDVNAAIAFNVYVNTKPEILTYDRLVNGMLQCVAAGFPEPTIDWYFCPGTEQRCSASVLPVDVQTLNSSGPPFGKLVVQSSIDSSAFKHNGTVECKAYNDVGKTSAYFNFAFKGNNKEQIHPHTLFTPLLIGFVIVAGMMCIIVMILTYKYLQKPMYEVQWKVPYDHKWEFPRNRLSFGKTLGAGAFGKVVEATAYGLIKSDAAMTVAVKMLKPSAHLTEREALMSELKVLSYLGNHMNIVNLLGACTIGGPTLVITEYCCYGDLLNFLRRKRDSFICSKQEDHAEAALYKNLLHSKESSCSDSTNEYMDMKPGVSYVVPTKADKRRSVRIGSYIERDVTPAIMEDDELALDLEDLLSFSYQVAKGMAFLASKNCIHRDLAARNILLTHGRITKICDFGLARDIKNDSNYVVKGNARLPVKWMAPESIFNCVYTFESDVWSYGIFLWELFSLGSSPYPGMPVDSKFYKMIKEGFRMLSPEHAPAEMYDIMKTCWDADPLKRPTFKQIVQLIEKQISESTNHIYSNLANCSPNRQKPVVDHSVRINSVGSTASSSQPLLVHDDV
T1 sequence (P10721 with tags, fused parts or gaps DEL560-576/V654A): as the sequence (P10721 with tags, fused parts or gaps DEL560-576) above, with V612A counted along it

Regarding `CO[C@H]1CCN(c2ccc(CNc3cc(-c4cnc5ccccn45)ncn3)cn2)C1` [A151, 6-{imidazo[1,2-a]pyridin-3-yl}-N-({6-[(3S)-3-methoxypyrrolidin-1-yl]pyridin-3-yl}methyl)pyrimidin-4-amine], the efflux ratio at 2 h, 1 μM in data set [1] is under 15. Also, the results for the IC50 (in data set [2]; in data set [3]; on c-Kit(V654A)) were 300 nM, 9.9 nM and 15 nM, respectively.
For `Cn1cc(-c2ccc(CNc3cc(-c4cnc5cc(OCCO)ccn45)ncn3)cc2)cn1` [A172, 2-({3-[6-({[4-(1-methyl-1H-pyrazol-4-yl)phenyl]methyl}amino)pyrimidin-4-yl]imidazo[1,2-a]pyridin-7-yl}oxy)ethan-1-ol], in that order: under 15, 75 nM, 2.7 nM and 6.3 nM.
With `Cn1ncc(-c2ccc(CNc3cc(-c4cnc5cc(OCCO)ccn45)ncn3)cc2)n1` [A173, 2-({3-[6-({[4-(2-methyl-2H-1,2,3-triazol-4-yl)phenyl]methyl}amino)pyrimidin-4-yl]imidazo[1,2-a]pyridin-7-yl}oxy)ethan-1-ol], the efflux ratio at 2 h, 1 μM in data set [1] is under 15. For the same molecule, the values for the IC50 (in data set [2]; in data set [3]; on c-Kit(V654A)) were 57 nM, 22 nM and 3.7 nM, respectively.
For `Cn1cc(-c2ccc(CNc3cc(-c4cnc5cc(N6CCCC6)ccn45)ncn3)cc2)cn1` [A177, [4-(1-methyl-1H-pyrazol-4-yl)-benzyl]-[6-(7-pyrrolidin-1-yl-imidazo[1,2-a]pyridin-3-yl)-pyrimidin-4-yl]-amine], in that order: under 15, 34 nM, 15 nM and 17 nM.
Take `Cn1cc(-c2ccc(CNc3cc(-c4cnc5cc(N6CCC(CCO)C6)ccn45)ncn3)cc2)cn1` (centres unmarked) [A178, 2-[1-(3-{6-[4-(1-methyl-1H-pyrazol-4-yl)-benzylamino]-pyrimidin-4-yl}-imidazo[1,2-a]pyridin-7-yl)-pyrrolidin-3-yl]-ethanol]: the efflux ratio at 2 h, 1 μM in data set [1] is under 15. Also, the results for the IC50 (in data set [2]; in data set [3]; at c-Kit(V654A)) were 47 nM, 3.8 nM and 19 nM, respectively.
Turning to `Cn1ncc(-c2ccc(CNc3cc(-c4cnc5cc(OCCCN6CCN(C7COC7)CC6)ccn45)ncn3)cc2)n1` [A185, [4-(2-methyl-2H-[1,2,3]triazol-4-yl)-benzyl]-(6-{7-[3-(4-oxetan-3-yl-piperazin-1-yl)-propoxy]-imidazo[1,2-a]pyridin-3-yl}-pyrimidin-4-yl)-amine], the efflux ratio at 2 h, 1 μM in data set [1] was under 15. For the same molecule, the IC50 in data set [2] is 59 nM; in data set [3], 1.3 nM; at c-Kit(V654A), 6.7 nM.
Consider `Cn1cc(-c2ccc(CNc3cc(-c4cnc5cc(OCCN6CCn7nncc7C6)ccn45)ncn3)cc2)cn1` [A217, (6-{7-[2-(6,7-dihydro-4H-[1,2,3]triazolo[1,5-a]pyrazin-5-yl)-ethoxy]-imidazo[1,2-a]pyridin-3-yl}-pyrimidin-4-yl)-[4-(1-methyl-1H-pyrazol-4-yl)-benzyl]-amine], for which the efflux ratio at 2 h, 1 μM in data set [1] is 15 to 50. In addition, the figures for the IC50 (in data set [2]; in data set [3]; at c-Kit(V654A)) were 76 nM, 4.4 nM and 7.8 nM, respectively.
For `Cn1cc(-c2ccc(CNc3cc(-c4cnc5cc(OCCCNC6COC6)ccn45)ncn3)cc2)cn1` [A258, N-{[4-(1-methyl-1H-pyrazol-4-yl)phenyl]methyl}-6-(7-{3-[(oxetan-3-yl)amino]propoxy}imidazo[1,2-a]pyridin-3-yl)pyrimidin-4-amine], the efflux ratio at 2 h, 1 μM in data set [1] is under 15. In addition, the IC50 in data set [2] amounted to 56 nM; in data set [3], 2.7 nM; on c-Kit(V654A), 5.1 nM.
Take `Cn1ncc(-c2ccc(CNc3cc(-c4cnc5cc(OCCCNC6COC6)ccn45)ncn3)cc2)n1` [A259, N-{[4-(2-methyl-2H-1,2,3-triazol-4-yl)phenyl]methyl}-6-(7-{3-[(oxetan-3-yl)amino]propoxy}imidazo[1,2-a]pyridin-3-yl)pyrimidin-4-amine]: the efflux ratio at 2 h, 1 μM in data set [1] is under 15. For the same molecule, the IC50 in data set [2] is 33 nM; in data set [3], 1.8 nM; at c-Kit(V654A), 3.8 nM.
For the molecule `Cn1cc(-c2ccc(CNc3cc(-c4cnc5cc(OCCCN[C@@H]6CCOC6)ccn45)ncn3)cc2)cn1` [A260, N-{[4-(1-methyl-1H-pyrazol-4-yl)phenyl]methyl}-6-[7-(3-{[(3R)-oxolan-3-yl]amino}propoxy)imidazo[1,2-a]pyridin-3-yl]pyrimidin-4-amine], the efflux ratio at 2 h, 1 μM in data set [1] fell in the range of 15 to 50. Moreover, the IC50 turned out to be 43 nM in data set [2], 1.9 nM in data set [3] and 6 nM at c-Kit(V654A).
For `Cc1nc(-c2ccc(CNc3cc(-c4cnc5cc(OCCN6CCC(=O)N(C)CC6)ccn45)ncn3)cc2)co1` [A261, 4-methyl-1-[2-({3-[6-({[4-(2-methyl-1,3-oxazol-4-yl)phenyl]methyl}amino)pyrimidin-4-yl]imidazo[1,2-a]pyridin-7-yl}oxy)ethyl]-1,4-diazepan-5-one], in that order: under 15, 54 nM, 1.4 nM and 2.1 nM.
Turning to `Cn1cc(-c2ccc(CNc3cc(-c4cnc5cc(OCCCN6CCC(C)(F)CC6)ccn45)ncn3)cc2)cn1` [A262, 6-{7-[3-(4-fluoro-4-methylpiperidin-1-yl)propoxy]imidazo[1,2-a]pyridin-3-yl}-N-{[4-(1-methyl-1H-pyrazol-4-yl)phenyl]methyl}pyrimidin-4-amine], in data set [1], the efflux ratio at 2 h, 1 μM is under 15. Moreover, the IC50 was 73 nM in data set [2], 4.4 nM in data set [3] and 5 nM at c-Kit(V654A).
For `CC1(F)CCN(CCCOc2ccn3c(-c4cc(NCc5ccc(-c6cocn6)cc5)ncn4)cnc3c2)CC1` [A263, 6-{7-[3-(4-fluoro-4-methylpiperidin-1-yl)propoxy]imidazo[1,2-a]pyridin-3-yl}-N-{[4-(1,3-oxazol-4-yl)phenyl]methyl}pyrimidin-4-amine], in that order: under 15, 66 nM, 4.3 nM and 2.3 nM.
For `Cc1nc(-c2ccc(CNc3cc(-c4cnc5cc(OCCN6CCn7nncc7C6)ccn45)ncn3)cc2)co1` [A264, N-{[4-(2-methyl-1,3-oxazol-4-yl)phenyl]methyl}-6-[7-(2-{4H,5H,6H,7H-[1,2,3]triazolo[1,5-a]pyrazin-5-yl}ethoxy)imidazo[1,2-a]pyridin-3-yl]pyrimidin-4-amine], in that order: 15 to 50, 36 nM, 1.1 nM and 1.6 nM.
With `FC(F)(F)Oc1ccc(CNc2cc(-c3cnc4cc(OCCN5CCn6nncc6C5)ccn34)ncn2)cc1` [A265, 6-[7-(2-{4H,5H,6H,7H-[1,2,3]triazolo[1,5-a]pyrazin-5-yl}ethoxy)imidazo[1,2-a]pyridin-3-yl]-N-{[4-(trifluoromethoxy)phenyl]methyl}pyrimidin-4-amine], the efflux ratio at 2 h, 1 μM in data set [1] is under 15. The results for the IC50 (in data set [2]; in data set [3]; on c-Kit(V654A)) were 78 nM, 3.3 nM and 6.8 nM, respectively.
For `Cn1cc(-c2ccc(CNc3cc(-c4cnc5cc(-n6cncn6)ccn45)ncn3)cc2)cn1` [A266, N-{[4-(1-methyl-1H-pyrazol-4-yl)phenyl]methyl}-6-[7-(1H-1,2,4-triazol-1-yl)imidazo[1,2-a]pyridin-3-yl]pyrimidin-4-amine], the efflux ratio at 2 h, 1 μM in data set [1] is under 15. Moreover, the IC50 in data set [2] is 130 nM; in data set [3], 5.1 nM; on c-Kit(V654A), 7.9 nM.
Consider `Cc1cn(-c2ccn3c(-c4cc(NCc5ccc(-c6cnn(C)c6)cc5)ncn4)cnc3c2)cn1` [A267, 6-[7-(4-methyl-1H-imidazol-1-yl)imidazo[1,2-a]pyridin-3-yl]-N-{[4-(1-methyl-1H-pyrazol-4-yl)phenyl]methyl}pyrimidin-4-amine], for which the efflux ratio at 2 h, 1 μM in data set [1] was under 15. For the same molecule, the IC50 was 63 nM in data set [2], 1.7 nM in data set [3] and 4.4 nM on c-Kit(V654A).
